{"source": "patent US9271959B2", "about": "“Bicyclic tetrahydropyrrole compounds” (Laboratorios del Dr. Esteve, S.A., priority 2006, dated 2016)", "origin": "cited, not measured here", "key": {"sigma (σ-2) site": {"molecular_target": "sigma (σ-2) site (Homo sapiens, UniProt Q5BJF2)", "sequence (Q5BJF2 whole entry)": "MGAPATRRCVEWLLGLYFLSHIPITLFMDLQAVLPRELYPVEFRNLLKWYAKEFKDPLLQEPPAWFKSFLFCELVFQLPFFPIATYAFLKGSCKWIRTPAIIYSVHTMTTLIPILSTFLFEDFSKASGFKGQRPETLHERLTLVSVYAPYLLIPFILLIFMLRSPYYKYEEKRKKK"}, "sigma 1 (σ-1) site": {"molecular_target": "sigma 1 (σ-1) site (Homo sapiens, UniProt Q99720)", "sequence (Q99720 whole entry)": "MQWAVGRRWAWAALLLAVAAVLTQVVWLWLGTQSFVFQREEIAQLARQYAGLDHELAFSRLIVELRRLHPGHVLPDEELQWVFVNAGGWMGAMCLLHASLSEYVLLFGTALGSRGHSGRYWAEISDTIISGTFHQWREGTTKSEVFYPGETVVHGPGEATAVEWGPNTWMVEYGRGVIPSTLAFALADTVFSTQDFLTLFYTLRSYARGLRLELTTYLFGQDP"}}}
{"substance": "SKF 10047", "values": [{"measurement": "affinity for the sigma (σ-2) site", "setting": "sigma (σ-2) site", "value": "micromolar affinity"}, {"measurement": "affinity for the sigma 1 (σ-1) site", "setting": "sigma 1 (σ-1) site", "value": "nanomolar affinity"}]}
